From ChEMBL document CHEMBL4371054, “Dual inhibition of Kif15 by oxindole and quinazolinedione chemical probes” (Bioorg Med Chem Lett, 2019) come the findings set out here.

In assay [1] the target is T1, Kinesin-like protein KIF15 (Homo sapiens) (UniProt Q9NS87).
T1 sequence (whole entry): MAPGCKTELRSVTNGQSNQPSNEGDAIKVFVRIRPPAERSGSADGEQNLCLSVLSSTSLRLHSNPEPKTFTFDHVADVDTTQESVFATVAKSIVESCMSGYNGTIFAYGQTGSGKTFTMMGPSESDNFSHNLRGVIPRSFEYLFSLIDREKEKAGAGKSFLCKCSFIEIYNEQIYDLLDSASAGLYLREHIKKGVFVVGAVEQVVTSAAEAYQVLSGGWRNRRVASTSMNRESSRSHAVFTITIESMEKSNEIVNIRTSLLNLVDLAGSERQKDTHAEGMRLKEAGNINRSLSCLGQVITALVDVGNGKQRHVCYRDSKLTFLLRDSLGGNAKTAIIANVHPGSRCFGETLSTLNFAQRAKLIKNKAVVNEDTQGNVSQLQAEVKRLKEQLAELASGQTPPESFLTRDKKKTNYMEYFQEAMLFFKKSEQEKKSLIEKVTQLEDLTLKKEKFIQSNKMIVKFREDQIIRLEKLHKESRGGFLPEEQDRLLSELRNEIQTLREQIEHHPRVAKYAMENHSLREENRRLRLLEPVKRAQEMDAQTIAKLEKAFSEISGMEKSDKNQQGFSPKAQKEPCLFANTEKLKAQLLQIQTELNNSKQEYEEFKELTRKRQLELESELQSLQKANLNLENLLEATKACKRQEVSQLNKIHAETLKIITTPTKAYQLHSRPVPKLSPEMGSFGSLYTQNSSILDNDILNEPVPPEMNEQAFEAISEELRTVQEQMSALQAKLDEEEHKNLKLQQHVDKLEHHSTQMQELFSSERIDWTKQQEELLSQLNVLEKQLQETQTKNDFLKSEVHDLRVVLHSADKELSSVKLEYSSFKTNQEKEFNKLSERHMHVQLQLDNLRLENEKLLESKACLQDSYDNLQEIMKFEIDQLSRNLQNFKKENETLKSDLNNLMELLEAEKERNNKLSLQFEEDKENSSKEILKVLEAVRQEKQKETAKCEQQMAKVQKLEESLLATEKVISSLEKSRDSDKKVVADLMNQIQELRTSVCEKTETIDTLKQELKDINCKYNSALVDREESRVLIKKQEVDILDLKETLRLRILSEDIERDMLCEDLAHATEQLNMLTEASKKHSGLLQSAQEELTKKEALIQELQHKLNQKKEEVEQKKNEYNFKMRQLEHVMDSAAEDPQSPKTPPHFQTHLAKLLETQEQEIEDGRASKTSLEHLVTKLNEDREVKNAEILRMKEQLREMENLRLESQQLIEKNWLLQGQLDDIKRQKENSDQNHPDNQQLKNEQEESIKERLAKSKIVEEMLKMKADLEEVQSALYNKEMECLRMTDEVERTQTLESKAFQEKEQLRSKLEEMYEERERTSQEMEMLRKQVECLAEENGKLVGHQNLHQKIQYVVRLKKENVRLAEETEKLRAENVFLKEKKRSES
Briefly: Inhibition of Kif15 in TP53-deficient human RPE1 cells assessed as effect on spindle length at 25 uM after 24 hrs by Hoechst 33342 staining based immunofluorescence microscopic analysis (reference value: 11.4 +/- 0.2 um).

The target in assay [2] is T2, Kinesin-like protein KIF15 (Homo sapiens, UniProt Q9NS87).
T2 sequence (Q9NS87 whole entry): T1 sequence (whole entry)
Briefly: Inhibition of recombinant His6-tagged Kif15 (N700 residues) (unknown origin) expressed in HeLa cells assessed as reduction in Alexa-594 labelled microtubule gliding measured every 2 secs for 20 secs by epifluorescence microscopic analysis. The class given is cell-based.

Assay [3] deals with T1, Kinesin-like protein KIF15 (Homo sapiens). Briefly: Reversible inhibition of recombinant His6-tagged Kif15 (N700 residues) (unknown origin) expressed in HeLa cells assessed as reduction in Alexa-594 labelled microtubule gliding at 10 uM treated for 1 min followed by compound washout and measured every 2 secs for 1 min by epifluorescence microscopic analysis. It counts as cell-based.

Assay [4] concerns the target T3, Aurora kinase A (Homo sapiens) (UniProt O14965).
T3 sequence (whole entry): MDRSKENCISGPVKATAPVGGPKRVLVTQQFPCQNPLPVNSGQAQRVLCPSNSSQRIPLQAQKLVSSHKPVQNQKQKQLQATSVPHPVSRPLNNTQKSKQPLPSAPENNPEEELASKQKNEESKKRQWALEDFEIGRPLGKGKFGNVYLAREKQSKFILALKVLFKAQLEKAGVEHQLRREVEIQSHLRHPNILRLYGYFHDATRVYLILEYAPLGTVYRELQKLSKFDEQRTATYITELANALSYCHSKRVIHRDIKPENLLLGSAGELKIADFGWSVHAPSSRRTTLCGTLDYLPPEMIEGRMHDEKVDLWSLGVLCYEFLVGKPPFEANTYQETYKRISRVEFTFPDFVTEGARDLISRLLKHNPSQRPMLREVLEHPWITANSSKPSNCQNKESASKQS
As to the kind of experiment: Inhibition of AURKA (unknown origin) at 1 uM relative to control.

Calls of active or inactive are those of the source. The calls are words filed in the database; no cut-off is given here.

As usually defined, the inhibition is the relative decrease from the control value, in per cent. The term IC50 denotes the concentration that gives 50% inhibition. For the molecule `O=C1Nc2ccc(C(=O)c3ccco3)cc2/C1=C/c1cc(Cl)c(O)c(Cl)c1`, the inhibition result in assay [1] is “inactive”. Moreover, in assay [2], the IC50 worked out at 750 nM. The inhibition entry in assay [3] is “Active”. The inhibition in assay [4] amounted to 67%.
